Usually EC50 stands for the concentration at which the effect is half-maximal.

This note sets out measurements from patent publication US11116760B2 (Gilead Sciences, Inc., priority 2018, dated 2021).

The target of one test is α4β7 integrin (Homo sapiens (Human), UniProt P13612+P26010). As to the kind of experiment: α4β7 Integrin Cell Capture Assay. It counts as cell-based. Particulars: RPMI8866 cells captured on MadCAM-1 extracellular domain-coated plate.
Chain of α4β7 integrin (P13612 34-1032): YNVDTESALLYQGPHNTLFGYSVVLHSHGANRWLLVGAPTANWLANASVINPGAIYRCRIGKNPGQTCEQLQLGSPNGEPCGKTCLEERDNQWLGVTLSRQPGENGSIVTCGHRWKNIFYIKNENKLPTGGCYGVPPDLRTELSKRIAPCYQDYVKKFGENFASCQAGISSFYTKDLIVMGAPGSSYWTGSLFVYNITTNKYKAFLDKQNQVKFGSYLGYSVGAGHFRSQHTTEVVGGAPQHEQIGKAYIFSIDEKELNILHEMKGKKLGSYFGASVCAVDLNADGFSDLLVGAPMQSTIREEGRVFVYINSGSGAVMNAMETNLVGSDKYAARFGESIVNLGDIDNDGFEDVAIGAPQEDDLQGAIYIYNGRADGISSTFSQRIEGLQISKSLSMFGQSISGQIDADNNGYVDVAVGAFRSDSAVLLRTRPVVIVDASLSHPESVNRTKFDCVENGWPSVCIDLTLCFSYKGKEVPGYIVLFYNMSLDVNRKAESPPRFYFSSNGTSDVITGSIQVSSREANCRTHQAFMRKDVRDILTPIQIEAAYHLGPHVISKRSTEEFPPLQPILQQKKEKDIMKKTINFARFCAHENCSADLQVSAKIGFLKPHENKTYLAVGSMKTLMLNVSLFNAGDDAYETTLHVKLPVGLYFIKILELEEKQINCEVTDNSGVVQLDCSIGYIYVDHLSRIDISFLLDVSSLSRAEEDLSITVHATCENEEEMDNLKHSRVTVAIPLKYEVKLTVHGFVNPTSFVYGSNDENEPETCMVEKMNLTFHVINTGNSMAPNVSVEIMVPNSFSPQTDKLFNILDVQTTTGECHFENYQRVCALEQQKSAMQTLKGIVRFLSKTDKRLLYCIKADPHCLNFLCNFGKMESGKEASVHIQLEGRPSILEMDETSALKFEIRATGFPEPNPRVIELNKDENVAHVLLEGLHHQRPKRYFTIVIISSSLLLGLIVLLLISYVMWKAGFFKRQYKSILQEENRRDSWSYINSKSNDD
Chain of α4β7 integrin (P26010 20-798): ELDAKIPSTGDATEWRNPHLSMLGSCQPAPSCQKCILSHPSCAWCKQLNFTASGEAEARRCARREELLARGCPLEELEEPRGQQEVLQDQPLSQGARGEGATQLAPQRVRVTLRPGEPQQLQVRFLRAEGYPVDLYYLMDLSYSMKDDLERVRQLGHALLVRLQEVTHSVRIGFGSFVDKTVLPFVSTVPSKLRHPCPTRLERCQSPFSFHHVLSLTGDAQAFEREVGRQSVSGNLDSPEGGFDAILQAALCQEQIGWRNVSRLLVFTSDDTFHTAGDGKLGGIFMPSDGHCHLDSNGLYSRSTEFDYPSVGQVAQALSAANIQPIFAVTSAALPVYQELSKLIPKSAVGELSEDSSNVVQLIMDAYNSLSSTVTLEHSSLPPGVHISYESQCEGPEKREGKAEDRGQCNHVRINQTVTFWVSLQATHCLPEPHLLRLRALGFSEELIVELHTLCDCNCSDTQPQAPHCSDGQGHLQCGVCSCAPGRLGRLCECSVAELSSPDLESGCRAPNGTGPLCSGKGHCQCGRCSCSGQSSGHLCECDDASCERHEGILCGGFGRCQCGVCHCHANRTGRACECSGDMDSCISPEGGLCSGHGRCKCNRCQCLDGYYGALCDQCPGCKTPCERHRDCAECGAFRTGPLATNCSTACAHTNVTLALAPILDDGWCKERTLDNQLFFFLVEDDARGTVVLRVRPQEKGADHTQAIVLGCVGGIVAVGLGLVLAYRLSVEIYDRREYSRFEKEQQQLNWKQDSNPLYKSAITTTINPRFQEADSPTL
In turn, `Cc1cc(N2CCOC[C@@H]2C(F)(F)F)cc(F)c1C(=O)N[C@@H](Cc1ccc(-n2c(=O)c3nccnc3n(C)c2=O)c2ncccc12)C(=O)O` [Example 404, (S)-2-(2-fluoro-6-methyl-4-((R)-3-(trifluoromethyl)morpholino)benzamido)-3-(8-(1-methyl-2,4-dioxo-1,4-dihydropteridin-3(2H)-yl)quinolin-5-yl)propanoic acid] returned an EC50 of 0.1 nM. The same measure, in the same setting: the value for `Cc1cc(C(F)(F)F)c(-c2ccc(C[C@H](NC(=O)c3c(F)cc(N4CCC[C@@H]4C(F)(F)F)cc3F)C(=O)O)c3cccnc23)c(=O)n1C` (atropisomer, axis not shown) [Example 485] was 0.233 nM; that for `COc1cnc2c(=O)n(-c3ccc(C[C@H](NC(=O)c4c(C)cc(N5CCOC[C@@H]5C(F)(F)F)cc4F)C(=O)O)c4cccnc34)c(=O)n(C)c2c1` [Example 415] was 0.091 nM.

The compound `Cc1cc(C(F)(F)F)c(-c2ccc(C[C@H](NC(=O)c3c(F)cc(N4CCOC5(COC5)C4)cc3F)C(=O)O)c3cccnc23)c(=O)n1C` [Example 459] showed an EC50 of 2.07 nM. The same measure, in the same setting: the value for `[2H]C([2H])([2H])c1cc(N2CCOC[C@@H]2C(F)(F)F)cc(F)c1C(=O)N[C@@H](Cc1ccc(-c2c(C(F)(F)F)cc(C)n(C)c2=O)c2ncccc12)C(=O)O` [Example 462] was 0.102 nM; that for `Cc1cc(N2CCOC[C@@H]2C(F)(F)F)cc(F)c1C(=O)N[C@@H](Cc1ccc(-c2nc(C)c(C)n(C)c2=O)c2ncc(F)cc12)C(=O)O` [Example 452] was 0.232 nM; that for `Cc1cc(N2CCOC[C@@H]2C(F)(F)F)cc(F)c1C(=O)N[C@@H](Cc1ccc(-n2c(=O)c3cc(F)ncc3n(C)c2=O)c2ncccc12)C(=O)O` [Example 420] was 0.116 nM. The same measure, in the same setting: the figure for `CN(C)c1ccc2c(c1)c(=O)n(-c1ccc(C[C@H](NC(=O)c3c(F)cc(N4CCOC[C@@H]4C(F)(F)F)cc3F)C(=O)O)c3cccnc13)c(=O)n2C` [Example 478] is 0.394 nM; for `Cc1cc(N2CCOC[C@@H]2C(F)(F)F)cc(F)c1C(=O)N[C@@H](Cc1ccc(-c2cc(N(C)C)c(C)n(C)c2=O)c2ncccc12)C(=O)O` [Example 450] it is 1.02 nM.

The same test, now with this note: Table 1; capture of α4β7 expressing RPM18866 cells on MadCAM-1 extracellular domain-coated plate.
As for `CC[C@@H](Nc1cc(F)c(C(=O)N[C@@H](Cc2ccc(-c3c(OC)cc(CN4CCOCC4)cc3OC)c3ncccc23)C(=O)O)c(F)c1)C(F)(F)F` [Example 121, (S)-2-(2,6-difluoro-4-(((R)-1,1,1-trifluorobutan-2-yl)amino)benzamido)-3-(8-(2,6-dimethoxy-4-(morpholinomethyl)phenyl)quinolin-5-yl)propanoic acid], a half-maximal effect (EC50) was put at 1.7 nM. Still for that read-out and setting: the value for `COc1c(F)cccc1-c1ccc(C[C@H](NC(=O)c2c(F)cc(NS(=O)(=O)c3ccc(-c4ccnc(F)c4)cc3)cc2F)C(=O)O)c2cccnc12` [Example 60, (S)-2-(2,6-difluoro-4-((4-(2-fluoropyridin-4-yl)phenyl)sulfonamido)benzamido)-3-(8-(3-fluoro-2-methoxyphenyl)quinolin-5-yl)propanoic acid] was 3 nM; that for `O=C(N[C@@H](Cc1ccc(-c2c(Cl)cncc2Cl)c2ncccc12)C(=O)O)c1c(F)cccc1F` [Example 20, (S)-3-(8-(3,5-dichloropyridin-4-yl)quinolin-5-yl)-2-(2,6-difluorobenzamido)propanoic acid] was 186 nM; that for `COc1cccc(C)c1-c1ccc(C[C@H](NC(=O)c2c(F)cc(NS(=O)(=O)c3ccc(-c4ccnc(F)c4)cc3)cc2F)C(=O)O)c2cccnc12` [Example 64, (2S)-2-(2,6-difluoro-4-((4-(2-fluoropyridin-4-yl)phenyl)sulfonamido)benzamido)-3-(8-(2-methoxy-6-methylphenyl)quinolin-5-yl)propanoic acid] was 0.8 nM.

As for `O=C(N[C@@H](Cc1ccc(-c2ncc3ccccc3c2C(F)(F)F)c2ncc(F)cc12)C(=O)O)c1c(Cl)cccc1Cl` [Example 35, (S)-2-(2,6-dichlorobenzamido)-3-(3-fluoro-8-(4-(trifluoromethyl)isoquinolin-3-yl)quinolin-5-yl)propanoic acid], the half-maximal effective concentration (EC50) came to 6.2 nM. This EC50 lies about 7.8-fold higher than the previous one. The same measure, in the same setting: the value for `CC[C@@H](Nc1cc(F)c(C(=O)N[C@@H](Cc2ccc(-n3c(=O)c4cc(N(C)C)ccc4n(C)c3=O)c3ncccc23)C(=O)O)c(F)c1)C(F)(F)F` [Example 108, (S)-2-(2,6-difluoro-4-(((R)-1,1,1-trifluorobutan-2-yl)amino)benzamido)-3-(8-(6-(dimethylamino)-1-methyl-2,4-dioxo-1,4-dihydroquinazolin-3(2H)-yl)quinolin-5-yl)propanoic acid] was 1 nM; that for `O=C(N[C@@H](Cc1ccc(-c2ccc(C3CC3)cc2Cl)c2ncccc12)C(=O)O)c1c(F)cc(NS(=O)(=O)c2ccc(-c3ccnc(F)c3)cc2)cc1F` [Example 54, (S)-3-(8-(2-chloro-4-cyclopropylphenyl)quinolin-5-yl)-2-(2,6-difluoro-4-((4-(2-fluoropyridin-4-yl)phenyl)sulfonamido)benzamido)propanoic acid] was 37.4 nM; that for `CC[C@@H](Nc1cc(F)c(C(=O)N[C@@H](Cc2ccc(-c3c(C)n(C)c(=O)n(C)c3=O)c3ncccc23)C(=O)O)c(F)c1)C(F)(F)F` [Example 114, (S)-2-(2,6-difluoro-4-(((R)-1,1,1-trifluorobutan-2-yl)amino)benzamido)-3-(8-(1,3,6-trimethyl-2,4-dioxo-1,2,3,4-tetrahydropyrimidin-5-yl)quinolin-5-yl)propanoic acid] was 0.6 nM.

`N#Cc1ccc(-c2ccc(C[C@H](NC(=O)c3c(F)cc(N4CCO[C@H](C(F)(F)F)C4)cc3F)C(=O)O)c3cccnc23)c(Cl)c1` [Example 85, (S)-3-(8-(2-chloro-4-cyanophenyl)quinolin-5-yl)-2-(2,6-difluoro-4-((S)-2-(trifluoromethyl)morpholino)benzamido)propanoic acid] showed an EC50 of 25.4 nM. Still for that read-out and setting: the value for `N#Cc1ccc(-c2ccc(C[C@H](NC(=O)c3c(F)cccc3Cl)C(=O)O)c3cccnc23)c(Cl)c1` [Example 2, (S)-3-(8-(2-chloro-4-cyanophenyl)quinolin-5-yl)-2-(2-chloro-6-fluorobenzamido)propanoic acid] was 31.1 nM; that for `CC[C@@H](Nc1cc(F)c(C(=O)N[C@@H](Cc2ccc(-c3c(C(F)(F)F)cc(C)n(C)c3=O)c3ncc(N(C)C)cc23)C(=O)O)c(F)c1)C(F)(F)F` [Example 139, (S)-2-(2,6-difluoro-4-(((R)-1,1,1-trifluorobutan-2-yl)amino)benzamido)-3-(8-(1,6-dimethyl-2-oxo-4-(trifluoromethyl)-1,2-dihydropyridin-3-yl)-3-(dimethylamino)quinolin-5-yl)propanoic acid] was 11.7 nM.

The same test, now with this note: Table 2; capture of α4β7 expressing RPM18866 cells on MadCAM-1 extracellular domain-coated plate.
Regarding `O=C(N[C@@H](Cc1ccc(NC(=O)c2c(Cl)cccc2Cl)c2ncccc12)C(=O)O)c1c(F)cccc1F` [Example 239], the EC50 worked out at 77.9 nM. In turn, `Cc1cc(C)n(C)c(=O)c1-c1ccc(C[C@H](NC(=O)c2c(F)cc(N3CCCC[C@@H]3C(F)(F)F)cc2F)C(=O)O)c2cccnc12` [Example 202] had an EC50 of 1.5 nM. Same read-out and setting: the value for `C[C@@H](NC(=O)c1cc(F)c(C(=O)N[C@@H](Cc2ccc(-c3ccc(C#N)cc3Cl)c3ncccc23)C(=O)O)c(F)c1)C(F)(F)F` [Example 154] was 44.6 nM; that for `CCc1nc(-c2ccc(C[C@H](NC(=O)c3c(F)cc(N[C@H](CC)C(F)(F)F)cc3F)C(=O)O)c3cccnc23)c(=O)n(C)c1CC` [Example 176] was 0.9 nM; that for `CCOc1ccnc(-c2ccc(C[C@H](NC(=O)c3c(F)cc(N4CCOC[C@@H]4C(F)(F)F)cc3F)C(=O)O)c3cccnc23)c1C(F)(F)F` [Example 193] was 1.4 nM. The same measure, in the same setting: the value for `CC[C@@H](Nc1cc(F)c(C(=O)N[C@@H](Cc2ccc(-c3nc(N)ccc3C(F)(F)F)c3ncccc23)C(=O)O)c(F)c1)C(F)(F)F` [Example 208] was 1.8 nM. The same measure, in the same setting: the value for `Cc1cc(C(F)(F)F)c(-c2ccc(C[C@H](NC(=O)c3c(F)cc(N4C[C@@H](C)OC[C@@H]4C)cc3F)C(=O)O)c3cccnc23)c(=O)n1C` [Example 191] was 1.3 nM; that for `Cn1cc(-c2ccc(C[C@H](NC(=O)c3c(F)cc(N[C@H](c4ccc(Cl)cc4)C(F)(F)F)cc3F)C(=O)O)c3cccnc23)c(=O)n(C)c1=O` [Example 232] was 0.9 nM; that for `CC(C)c1cccnc1-c1ccc(C[C@H](NC(=O)c2c(F)cc(N3CCOC[C@@H]3C(F)(F)F)cc2F)C(=O)O)c2cccnc12` [Example 248] was 3 nM. For the compound `CCOCc1cc(OC)c(-c2ccc(C[C@H](NC(=O)c3c(Cl)cc4[nH]ccc4c3Cl)C(=O)O)c3cccnc23)c(OC)c1` [Example 235], the EC50 was determined as 2.3 nM.

`Cc1nc(-c2ccc(C[C@H](NC(=O)c3c(F)cc(N4CCOC[C@@H]4C(F)(F)F)cc3F)C(=O)O)c3cccnc23)c(=O)n(C)c1C` [Example 151] had an EC50 of 0.2 nM. This EC50 is about 11-fold lower than that of the compound before. On the same count and under the same terms, the figure for `CC[C@@H](Nc1cc(F)c(C(=O)N[C@@H](Cc2ccc(-c3nc(C)nc(C)c3C)c3ncccc23)C(=O)O)c(F)c1)C(F)(F)F` [Example 320] is 15.3 nM; for `Cc1cc(C(F)(F)F)c(-c2ccc(C[C@H](NC(=O)c3c(F)cc(N4CCOCC4)cc3F)C(=O)O)c3cccnc23)c(=O)n1C` [Example 217] it is 2 nM; for `N#Cc1ccc(-c2ccc(C[C@H](NC(=O)c3c(F)cc(N[C@H](c4ccc(F)cc4)C(F)(F)F)cc3F)C(=O)O)c3cccnc23)c(Cl)c1` [Example 331] it is 22.9 nM. In turn, `N#Cc1ccc(-c2ccc(C[C@H](NC(=O)c3c(F)cc(NCC(F)(F)F)cc3F)C(=O)O)c3cccnc23)c(Cl)c1` [Example 332] yielded an EC50 of 23.7 nM. Take `O=C(N[C@@H](Cc1ccc(-c2cc(F)c(F)cc2OC2CCC2)c2ncccc12)C(=O)O)c1c(F)cccc1F` [Example 177]: a half-maximal effect (EC50) was put at 28 nM. Compound `N#Cc1ccc(-c2ccc(C[C@H](NC(=O)c3c(F)cc(C(=O)N[C@H]4C[C@@H](O)C4)cc3F)C(=O)O)c3cccnc23)c(Cl)c1` [Example 267] came in with an EC50 of 77 nM.

`CC[C@@H](Nc1cc(F)c(C(=O)N[C@@H](Cc2ccc(-c3c(OC)ccn(C)c3=O)c3ncccc23)C(=O)O)c(F)c1)C(F)(F)F` [Example 186] displayed an EC50 of 1 nM.
